Patent publication US20220056037A1 (SPV THERAPEUTICS INC., priority 2018, published 2022)
Read-outs that look alike come from different tables or passages of the source.

Tests used:
Assay in all cases: Inhibition assay, microfluidic LabChip (Nanosyn)
Assay type in all cases: biochemical
CDK1/B = CDK1/B (Homo sapiens, UniProt P06493); details: Table 3a
Procedure: (§1) The reaction was terminated by the addition of EDTA. The plates were analyzed using a Caliper LabChip 3000.
(§2) Additional inhibition assays were performed as described above.

CDK2-CYCLINA = molecular target: T1, CDK2-CYCLINA (Homo sapiens, UniProt P24941);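 note: values are IC50 from a concentration-response series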
T1 construct: purchased Millipore
Procedure: as §1, §2

CDK4-CYCLIND1 = molecular target: T2, CDK4-CYCLIND1 (Homo sapiens, UniProt P11802); details: read-out: CDK4 CyclinD1 IC50
T2 construct: purchased Invitrogen
T2 sequence (P11802 whole entry): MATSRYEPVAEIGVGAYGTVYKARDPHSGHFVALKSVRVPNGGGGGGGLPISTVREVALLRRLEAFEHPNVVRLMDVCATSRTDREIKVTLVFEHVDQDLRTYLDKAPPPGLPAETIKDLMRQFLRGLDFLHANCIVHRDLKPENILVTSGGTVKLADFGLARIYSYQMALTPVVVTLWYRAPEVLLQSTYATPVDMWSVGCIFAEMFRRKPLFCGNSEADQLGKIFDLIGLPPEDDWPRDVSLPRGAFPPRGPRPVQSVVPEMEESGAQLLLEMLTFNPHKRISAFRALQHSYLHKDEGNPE
T2 sequence (P24385 whole entry partner): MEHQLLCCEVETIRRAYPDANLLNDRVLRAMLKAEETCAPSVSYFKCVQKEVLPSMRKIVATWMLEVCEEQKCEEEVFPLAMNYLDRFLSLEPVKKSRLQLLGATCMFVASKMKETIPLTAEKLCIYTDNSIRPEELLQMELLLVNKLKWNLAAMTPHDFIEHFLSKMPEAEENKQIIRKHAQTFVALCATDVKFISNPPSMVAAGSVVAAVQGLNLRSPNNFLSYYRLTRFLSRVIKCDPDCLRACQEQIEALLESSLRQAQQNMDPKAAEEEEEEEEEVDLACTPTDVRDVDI
Procedure: as §1, §2

CDK7 CyclinH = CDK7 CyclinH (Homo sapiens, UniProt P50613);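 note: values are IC50 from a concentration-response series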
Chain of CDK7 CyclinH (P50613 whole entry): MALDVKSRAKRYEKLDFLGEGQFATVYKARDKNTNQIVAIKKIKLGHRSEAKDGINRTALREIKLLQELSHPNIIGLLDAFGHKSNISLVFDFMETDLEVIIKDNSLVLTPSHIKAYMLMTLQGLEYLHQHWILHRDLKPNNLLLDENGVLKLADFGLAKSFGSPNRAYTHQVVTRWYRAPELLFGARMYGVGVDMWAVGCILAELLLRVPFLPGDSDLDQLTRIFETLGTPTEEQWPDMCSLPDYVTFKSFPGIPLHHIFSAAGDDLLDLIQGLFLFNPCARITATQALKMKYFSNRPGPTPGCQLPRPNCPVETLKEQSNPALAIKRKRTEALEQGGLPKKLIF
Chain of CDK7 CyclinH (P51946 whole entry partner): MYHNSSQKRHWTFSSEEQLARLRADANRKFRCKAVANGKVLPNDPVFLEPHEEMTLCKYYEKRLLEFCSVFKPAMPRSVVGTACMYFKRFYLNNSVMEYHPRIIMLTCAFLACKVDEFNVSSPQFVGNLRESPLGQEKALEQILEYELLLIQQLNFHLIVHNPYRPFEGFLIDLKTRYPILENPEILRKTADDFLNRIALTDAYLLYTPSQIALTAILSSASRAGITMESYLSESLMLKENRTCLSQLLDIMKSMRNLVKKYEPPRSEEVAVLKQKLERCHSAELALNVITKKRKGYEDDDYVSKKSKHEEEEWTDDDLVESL
Chain of CDK7 CyclinH (P51948 whole entry partner): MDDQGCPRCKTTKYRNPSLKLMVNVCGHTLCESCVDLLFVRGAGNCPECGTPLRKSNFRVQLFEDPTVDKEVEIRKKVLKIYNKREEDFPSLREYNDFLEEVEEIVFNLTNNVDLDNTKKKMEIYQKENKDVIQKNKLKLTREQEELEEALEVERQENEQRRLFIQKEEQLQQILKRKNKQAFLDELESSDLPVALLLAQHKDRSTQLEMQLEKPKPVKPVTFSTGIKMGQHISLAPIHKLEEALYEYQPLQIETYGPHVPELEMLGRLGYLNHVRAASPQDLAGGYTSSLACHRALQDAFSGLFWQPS
Procedure: as §1, §2

CDK9-CYCLINT1 = molecular target: T3, CDK9-CYCLINT1 (Homo sapiens, UniProt P50750);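 note: values are IC50 from a concentration-response series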
T3 construct: purchased Carna
T3 sequence (P50750 whole entry): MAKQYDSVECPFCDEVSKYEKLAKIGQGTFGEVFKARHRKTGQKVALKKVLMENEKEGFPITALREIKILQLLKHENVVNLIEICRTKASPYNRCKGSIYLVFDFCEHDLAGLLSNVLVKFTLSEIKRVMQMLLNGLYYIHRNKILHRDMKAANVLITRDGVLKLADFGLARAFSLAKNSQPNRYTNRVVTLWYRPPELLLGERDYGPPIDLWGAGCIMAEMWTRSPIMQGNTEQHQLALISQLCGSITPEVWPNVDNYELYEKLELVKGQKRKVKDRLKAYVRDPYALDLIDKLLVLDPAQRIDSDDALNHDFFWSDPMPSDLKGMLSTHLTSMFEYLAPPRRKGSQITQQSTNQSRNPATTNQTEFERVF
T3 sequence (O60563 whole entry partner): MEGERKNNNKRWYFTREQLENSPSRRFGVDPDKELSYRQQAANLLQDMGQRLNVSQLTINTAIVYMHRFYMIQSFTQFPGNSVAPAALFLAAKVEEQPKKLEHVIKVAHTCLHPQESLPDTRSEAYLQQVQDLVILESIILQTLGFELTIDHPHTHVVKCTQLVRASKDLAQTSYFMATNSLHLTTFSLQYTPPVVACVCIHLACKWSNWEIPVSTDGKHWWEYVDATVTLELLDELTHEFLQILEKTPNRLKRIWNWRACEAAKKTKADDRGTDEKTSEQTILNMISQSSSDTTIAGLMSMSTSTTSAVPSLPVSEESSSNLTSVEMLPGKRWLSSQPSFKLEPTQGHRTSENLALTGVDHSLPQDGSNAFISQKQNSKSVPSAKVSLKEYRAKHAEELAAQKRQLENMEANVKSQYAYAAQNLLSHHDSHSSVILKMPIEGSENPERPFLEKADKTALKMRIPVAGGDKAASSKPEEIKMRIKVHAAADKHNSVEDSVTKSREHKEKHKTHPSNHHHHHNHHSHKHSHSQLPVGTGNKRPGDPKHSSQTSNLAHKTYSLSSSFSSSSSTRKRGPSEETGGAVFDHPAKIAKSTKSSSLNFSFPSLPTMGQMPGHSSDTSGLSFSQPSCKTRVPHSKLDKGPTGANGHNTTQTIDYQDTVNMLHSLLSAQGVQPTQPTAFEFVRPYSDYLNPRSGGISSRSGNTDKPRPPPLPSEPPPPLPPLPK
Procedure: as §1, §2

CDK6-CYCLIND3 = molecular target: T4, CDK6-CYCLIND3 (Homo sapiens, UniProt Q00534); details: read-out: CDK6 CyclinD3 IC50
T4 construct: purchased Carna
T4 sequence (Q00534 whole entry): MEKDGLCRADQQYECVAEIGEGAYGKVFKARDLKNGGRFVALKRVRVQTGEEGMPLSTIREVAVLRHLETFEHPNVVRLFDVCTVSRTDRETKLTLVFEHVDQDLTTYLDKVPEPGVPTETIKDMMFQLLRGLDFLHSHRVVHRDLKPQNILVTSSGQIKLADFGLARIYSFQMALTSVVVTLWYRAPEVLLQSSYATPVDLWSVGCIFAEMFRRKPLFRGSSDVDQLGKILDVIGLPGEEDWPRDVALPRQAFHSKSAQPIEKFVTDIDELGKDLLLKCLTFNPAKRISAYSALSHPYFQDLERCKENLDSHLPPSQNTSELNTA
T4 sequence (P30281 whole entry partner): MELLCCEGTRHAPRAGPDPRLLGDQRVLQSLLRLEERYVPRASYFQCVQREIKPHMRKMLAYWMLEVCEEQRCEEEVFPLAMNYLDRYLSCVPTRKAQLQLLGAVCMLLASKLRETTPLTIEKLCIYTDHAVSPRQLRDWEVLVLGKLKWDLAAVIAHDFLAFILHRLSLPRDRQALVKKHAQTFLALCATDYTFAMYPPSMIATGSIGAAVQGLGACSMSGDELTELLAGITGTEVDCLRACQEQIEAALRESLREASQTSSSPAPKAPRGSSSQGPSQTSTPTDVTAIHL
Procedure: as §1, §2

Chain of CDK1/B (P06493 whole entry): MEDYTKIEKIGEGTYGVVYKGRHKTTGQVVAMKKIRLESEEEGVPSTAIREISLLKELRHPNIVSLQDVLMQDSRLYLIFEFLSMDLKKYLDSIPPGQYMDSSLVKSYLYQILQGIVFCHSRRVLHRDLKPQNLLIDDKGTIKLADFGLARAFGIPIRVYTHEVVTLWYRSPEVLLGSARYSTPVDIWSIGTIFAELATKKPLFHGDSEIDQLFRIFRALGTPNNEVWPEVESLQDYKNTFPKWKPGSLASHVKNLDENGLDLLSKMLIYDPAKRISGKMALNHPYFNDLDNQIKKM
Chain of CDK1/B (P14635 whole entry partner): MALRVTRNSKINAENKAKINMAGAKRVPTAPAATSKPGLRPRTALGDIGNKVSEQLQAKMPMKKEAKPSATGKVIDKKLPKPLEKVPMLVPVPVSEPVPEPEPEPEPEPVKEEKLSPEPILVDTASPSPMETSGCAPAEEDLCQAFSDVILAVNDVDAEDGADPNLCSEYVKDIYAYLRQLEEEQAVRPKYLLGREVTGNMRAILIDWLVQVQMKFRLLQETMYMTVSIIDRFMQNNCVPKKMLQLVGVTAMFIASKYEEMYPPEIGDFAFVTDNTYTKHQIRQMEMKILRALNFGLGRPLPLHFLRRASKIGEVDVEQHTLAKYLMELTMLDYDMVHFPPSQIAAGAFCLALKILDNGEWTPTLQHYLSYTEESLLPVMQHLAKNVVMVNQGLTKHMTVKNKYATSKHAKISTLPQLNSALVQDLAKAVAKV

Row | SMILES | IC50 (CDK1/B) | IC50 (CDK2-CYCLINA; Table 3a) | IC50 (CDK2-CYCLINA; Table 3b) | IC50 (CDK4-CYCLIND1; Table 3a) | IC50 (CDK4-CYCLIND1; Table 3b) | IC50 (CDK7 CyclinH; Table 3a) | IC50 (CDK7 CyclinH; Table 3b) | IC50 (CDK9-CYCLINT1; Table 3a) | IC50 (CDK9-CYCLINT1; Table 3b) | IC50 (CDK6-CYCLIND3; Table 3a) | IC50 (CDK6-CYCLIND3; Table 3b)
1 | CN(C)CCOc1ccc(Nc2ncc3cc(C(=O)N(C)C)n(C45CC(C4)C5)c3n2)cc1 [Compound A60, 7-(bicyclo[1.1.1]pentan-1-yl)-2-((4-(2-(dimethylamino)ethoxy)phenyl)amino)-N,N-dimethyl-7H-pyrrolo[2,3-d]pyrimidine-6-carboxamide] | 955 nM | 800 nM | 800 nM | 7.9 nM | 7.9 nM | 3420 nM | 3420 nM | < 3.2 nM | < 3.2 nM | – | –
2 | CC1CN(c2ccc(Nc3ncc4cc(C(=O)N(C)C)n(C56CC(C5)C6)c4n3)cc2)CC(C)N1 (centres unmarked) [Compound A90, 7-(bicyclo[1.1.1]pentan-1-yl)-2-((4-(3,5-dimethylpiperazin-1-yl)phenyl)amino)-N,N-dimethyl-7H-pyrrolo[2,3-d]pyrimidine-6-carboxamide] | 1150 nM | 913 nM | 913 nM | 11.1 nM | 11.1 nM | 5610 nM | 5610 nM | 9.26 nM | – | – | –
3 | CN(C)C(=O)c1cc2cnc(Nc3ccc(N4CCN(CCO)CC4)c(F)c3)nc2n1C12CC(C1)C2 [Compound A74, 7-(bicyclo[1.1.1]pentan-1-yl)-2-((3-fluoro-4-(4-(2-hydroxyethyl)piperazin-1-yl)phenyl)amino)-N,N-dimethyl-7H-pyrrolo[2,3-d]pyrimidine-6-carboxamide] | 250 nM | 245 nM | 245 nM | < 3.2 nM | < 3.2 nM | 938 nM | 938 nM | < 3.2 nM | < 3.2 nM | – | –
4 | CC(C)N1CCN(c2ccc(Nc3ncc4cc(C(=O)N(C)C)n(C56CC(C5)C6)c4n3)cc2)CC1 (single isomer, unassigned) [Compound A89, 7-(bicyclo[1.1.1]pentan-1-yl)-2-((4-(4-isopropylpiperazin-1-yl)phenyl)amino)-N,N-dimethyl-7H-pyrrolo[2,3-d]pyrimidine-6-carboxamide] | 440 nM | 400 nM | 400 nM | < 3.2 nM | < 3.2 nM | 1520 nM | 1520 nM | 4.06 nM | – | – | –
5 | CN(C)C(=O)c1cc2cnc(Nc3ccc(S(C)(=O)=O)cc3)nc2n1C12CC(C1)C2 [Compound A79, 7-(bicyclo[1.1.1]pentan-1-yl)-N,N-dimethyl-2-((4-(methylsulfonyl)phenyl)amino)-7H-pyrrolo[2,3-d]pyrimidine-6-carboxamide] | 97.1 nM | 30.2 nM | 30.2 nM | 36 nM | 36 nM | > 10000 nM | > 10000 nM | < 3.2 nM | < 3.2 nM | – | –
6 | CN1CCN(c2ccc(Nc3ncc4cc(C(=O)N(C)C)n(C56CC(C5)C6)c4n3)cc2)CC1 [Compound A88, 7-(bicyclo[1.1.1]pentan-1-yl)-N,N-dimethyl-2-((4-(4-methylpiperazin-1-yl)phenyl)amino)-7H-pyrrolo[2,3-d]pyrimidine-6-carboxamide dihydrogen chloride] | 379 nM | 354 nM | 354 nM | < 3.2 nM | < 3.2 nM | 1650 nM | 1650 nM | 5.1 nM | 5.1 nM | – | –
7 | CN1CC2(C1)CN(c1ccc(Nc3ncc4cc(C(=O)N(C)C)n(C56CC(C5)C6)c4n3)cc1)C2 [Compound A69, 7-(bicyclo[1.1.1]pentan-1-yl)-N,N-dimethyl-2-((4-(6-methyl-2,6-diazaspiro[3.3]heptan-2-yl)phenyl)amino)-7H-pyrrolo[2,3-d]pyrimidine-6-carboxamide] | 1830 nM | 1470 nM | 1470 nM | 14 nM | 14 nM | > 10000 nM | > 10000 nM | 5.1 nM | – | – | –
8 | CN1CC2(C1)CN(c1ccc(Nc3ncc4cc(C(=O)N(C)C)n(C56CC(C5)C6)c4n3)cc1F)C2 [Compound A70, 7-(bicyclo[1.1.1]pentan-1-yl)-2-((3-fluoro-4-(6-methyl-2,6-diazaspiro[3.3]heptan-2-yl)phenyl)amino)-N,N-dimethyl-7H-pyrrolo[2,3-d]pyrimidine-6-carboxamide] | 732 nM | 631 nM | 631 nM | 15.9 nM | 15.9 nM | 5010 nM | 5010 nM | 4.76 nM | – | – | –
9 | CN1CCN(C2CCN(c3ccc(Nc4ncc5cc(C(=O)N(C)C)n(C67CC(C6)C7)c5n4)cc3F)CC2)CC1 [Compound A68, 7-(bicyclo[1.1.1]pentan-1-yl)-2-((3-fluoro-4-(4-(4-methylpiperazin-1-yl)piperidin-1-yl)phenyl)amino)-N,N-dimethyl-7H-pyrrolo[2,3-d]pyrimidine-6-carboxamide] | 562 nM | 632 nM | 632 nM | – | – | 2680 nM | 2680 nM | – | – | – | –
10 | CN(C)CCOc1ccc(Nc2ncc3cc(C(=O)N(C)C)n(C45CC(C4)C5)c3n2)cc1F [Compound A93, 7-(bicyclo[1.1.1]pentan-1-yl)-2-((4-(2-(dimethylamino)ethoxy)-3-fluorophenyl)amino)-N,N-dimethyl-7H-pyrrolo[2,3-d]pyrimidine-6-carboxamide] | 655 nM | 742 nM | 742 nM | 6.98 nM | 6.98 nM | 2140 nM | 2140 nM | < 3.2 nM | < 3.2 nM | – | –
11 | CN(C)C(=O)c1cc2cnc(Nc3ccc(N4CCNCC4)cn3)nc2n1C12CC(C1)C2 [Compound A86, 7-(bicyclo[1.1.1]pentan-1-yl)-N,N-dimethyl-2-((5-(piperazin-1-yl)pyridin-2-yl)amino)-7H-pyrrolo[2,3-d]pyrimidine-6-carboxamide] | – | 18900 nM | 18900 nM | 16 nM | 16 nM | 27400 nM | 27400 nM | 670 nM | – | 20.1 nM | 20.1 nM
12 | CN1CCC(c2ccc(Nc3ncc4cc(C(=O)N(C)C)n(C56CC(C5)C6)c4n3)cc2)CC1 [Compound A51, 7-(bicyclo[1.1.1]pentan-1-yl)-N,N-dimethyl-2-((4-(1-methylpiperidin-4-yl)phenyl)amino)-7H-pyrrolo[2,3-d]pyrimidine-6-carboxamide] | 453 nM | 660 nM | 660 nM | 4.52 nM | 4.52 nM | 2060 nM | 2060 nM | 5.46 nM | – | – | –
13 | CC1CCN(c2ccc(Nc3ncc4cc(C(=O)N(C)C)n(C56CC(C5)C6)c4n3)cc2)CC1 [Compound A91, 7-(bicyclo[1.1.1]pentan-1-yl)-N,N-dimethyl-2-((4-(4-methylpiperidin-1-yl)phenyl)amino)-7H-pyrrolo[2,3-d]pyrimidine-6-carboxamide] | 1330 nM | 690 nM | 690 nM | 25.5 nM | 25.5 nM | 5790 nM | 5790 nM | 7.14 nM | – | – | –
14 | Cc1cc(Nc2ncc3cc(C(=O)N(C)C)n(C45CC(C4)C5)c3n2)ccc1OCCN(C)C [Compound A92, 7-(bicyclo[1.1.1]pentan-1-yl)-2-((4-(2-(dimethylamino)ethoxy)-3-methylphenyl)amino)-N,N-dimethyl-7H-pyrrolo[2,3-d]pyrimidine-6-carboxamide] | 620 nM | 713 nM | 713 nM | 14.7 nM | 14.7 nM | 2650 nM | 2650 nM | < 3.2 nM | < 3.2 nM | – | –
